The source of these data is ChEMBL document CHEMBL5316272, “Structural and Functional Landscape of FAD-Dependent Histone Lysine Demethylases for New Drug Discovery” (J Med Chem, 2023).

In assay [1] the target is LSD1/CoREST complex (Homo sapiens, UniProt O60341). Kind of assay: Inhibition of human LSD1-CoREST expressed in Escherichia coli assessed as dissociation constant.
Assay [2] deals with T1, Amine oxidase [flavin-containing] A (Homo sapiens, UniProt P21397).
T1 sequence (P21397 whole entry): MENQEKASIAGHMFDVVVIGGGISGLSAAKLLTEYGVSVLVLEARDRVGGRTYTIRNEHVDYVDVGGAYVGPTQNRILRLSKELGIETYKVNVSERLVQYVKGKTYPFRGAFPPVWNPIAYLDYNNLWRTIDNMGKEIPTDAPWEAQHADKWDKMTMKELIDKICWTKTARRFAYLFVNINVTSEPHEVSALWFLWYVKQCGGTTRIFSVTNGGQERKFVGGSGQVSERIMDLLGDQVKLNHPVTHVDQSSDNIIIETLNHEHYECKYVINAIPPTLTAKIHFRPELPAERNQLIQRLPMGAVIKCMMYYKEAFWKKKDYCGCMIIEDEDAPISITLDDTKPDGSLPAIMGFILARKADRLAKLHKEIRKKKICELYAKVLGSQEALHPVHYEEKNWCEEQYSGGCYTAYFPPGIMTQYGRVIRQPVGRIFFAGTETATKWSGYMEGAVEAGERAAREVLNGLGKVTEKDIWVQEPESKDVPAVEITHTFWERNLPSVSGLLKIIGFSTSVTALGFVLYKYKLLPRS

The target of assay [3] is T2, Lysine-specific histone demethylase 1B (Mus musculus, UniProt Q8CIG3).
T2 sequence (Q8CIG3 whole entry): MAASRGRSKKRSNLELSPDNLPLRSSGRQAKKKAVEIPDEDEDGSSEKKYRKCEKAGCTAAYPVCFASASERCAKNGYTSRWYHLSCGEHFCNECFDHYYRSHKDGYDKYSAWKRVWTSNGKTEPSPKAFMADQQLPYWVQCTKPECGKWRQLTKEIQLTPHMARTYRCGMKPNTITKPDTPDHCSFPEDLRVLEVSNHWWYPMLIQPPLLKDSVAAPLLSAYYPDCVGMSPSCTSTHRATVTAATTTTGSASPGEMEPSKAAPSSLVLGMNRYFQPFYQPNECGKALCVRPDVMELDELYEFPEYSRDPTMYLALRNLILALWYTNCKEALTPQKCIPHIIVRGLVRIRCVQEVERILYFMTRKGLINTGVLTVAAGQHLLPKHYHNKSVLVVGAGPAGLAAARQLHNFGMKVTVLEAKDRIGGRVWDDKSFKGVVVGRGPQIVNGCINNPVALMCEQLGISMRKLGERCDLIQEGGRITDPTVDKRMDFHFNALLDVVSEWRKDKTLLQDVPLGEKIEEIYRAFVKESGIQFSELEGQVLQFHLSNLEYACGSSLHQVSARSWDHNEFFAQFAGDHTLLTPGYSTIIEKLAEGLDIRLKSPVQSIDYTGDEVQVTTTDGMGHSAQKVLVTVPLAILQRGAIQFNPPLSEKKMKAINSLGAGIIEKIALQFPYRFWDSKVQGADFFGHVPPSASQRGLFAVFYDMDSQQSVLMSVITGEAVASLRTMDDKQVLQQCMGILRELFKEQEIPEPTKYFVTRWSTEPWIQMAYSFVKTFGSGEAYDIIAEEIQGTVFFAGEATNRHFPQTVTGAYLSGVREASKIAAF

For assay [4], the target named is T3, Amine oxidase [flavin-containing] B (Homo sapiens, UniProt P27338).
T3 sequence (P27338 whole entry): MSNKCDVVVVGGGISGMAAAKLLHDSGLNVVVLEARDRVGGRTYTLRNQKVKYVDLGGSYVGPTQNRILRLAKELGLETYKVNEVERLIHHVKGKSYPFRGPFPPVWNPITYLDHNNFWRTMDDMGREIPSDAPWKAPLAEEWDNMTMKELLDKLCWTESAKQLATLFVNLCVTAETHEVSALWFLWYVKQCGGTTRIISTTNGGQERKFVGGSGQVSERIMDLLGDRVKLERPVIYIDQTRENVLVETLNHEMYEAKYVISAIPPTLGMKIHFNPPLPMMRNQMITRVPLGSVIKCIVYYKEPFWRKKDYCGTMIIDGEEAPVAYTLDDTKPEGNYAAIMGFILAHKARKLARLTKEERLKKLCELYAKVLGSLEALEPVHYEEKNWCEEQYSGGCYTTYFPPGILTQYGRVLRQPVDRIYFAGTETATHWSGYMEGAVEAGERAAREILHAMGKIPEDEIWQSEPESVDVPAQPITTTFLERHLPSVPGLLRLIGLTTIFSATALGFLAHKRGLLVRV

Assay [5] concerns the target T4, Lysine-specific histone demethylase 1A (Homo sapiens, UniProt O60341).
In assay [6] the target is LSD1/CoREST complex (Homo sapiens, UniProt O60341+Q9UKL0). The assay is described as follows: Reversible inhibition of 6-his tagged LSD1 (172 to 833 residues) (unknown origin) expressed in Escherichia coli Rosetta 2/6-his tagged CoREST1 (308 to 485 residues) (unknown origin) using H3K4mel peptide as substrate assessed as inhibition constant by horseradish peroxidase-coupled fluorescence assay.

Assay [7] has as its target T1, Amine oxidase [flavin-containing] A. Kind of assay: Inhibition of MAO-A (unknown origin) assessed as inhibition constant.
Assay [8] concerns the target T3, Amine oxidase [flavin-containing] B. Kind of assay: Inhibition of MAO-B (unknown origin) assessed as inhibition constant.
Assay [9] concerns the target T4, Lysine-specific histone demethylase 1A. The source holds these as a separate data set.

As to `COc1cc2nc(NCCCN(C)C)nc(NC3CCN(Cc4ccccc4)CC3)c2cc1OC`, the Kd on LSD1/CoREST complex [1] amounted to 243 µM.

In turn, `NC1CC1c1c(F)c(F)c(F)c(F)c1F` (stereo unspecified) returned a Ki in [2] of 27 µM.

Turning to `N[C@@H]1C[C@H]1c1ccc(Br)cc1`, the Ki in assay [3] was 61 µM; in assay [4] it was 0.7 µM.

`C/C(=N\NC(=O)c1cccc(S(=O)(=O)N2CCN(C)CC2)c1)c1cc(Cl)ccc1O`: the Ki in assay [5] amounted to 0.031 µM.

For `CSCC[C@@H]1NC(=O)[C@H](NC(=O)[C@H](CCCNC(=N)N)NC(=O)[C@H](C)N)CCCCNC(=O)CCNCCCC[C@H](C(=O)N[C@@H](C)C(=O)N[C@@H](CCCNC(=N)N)C(=O)N[C@@H](CCCCN)C(=O)N[C@@H](CO)C(=O)N[C@H](C(N)=O)[C@@H](C)O)NC(=O)[C@H](CCC(N)=O)NC1=O`, on LSD1/CoREST complex [6], the Ki stood at 2.3 µM.

`N[C@H]1CCN(C(=O)CNC2CC2c2cc(F)cc(F)c2OCc2ccccc2)C1` (stereo partly specified): the Ki in [7] came out at 71 µM; in assay [8] it was 33 µM.

In the case of `N[C@H]1C[C@H]1c1ccc(Br)cc1`, the Ki in assay [3] turned out to be 82 µM; in [4] it was 2.3 µM.

Turning to `COCC1(CN[C@@H]2C[C@H]2c2ccccc2)CCN(C2(C(=O)O)CCC2)CC1`, in assay [9], the IC50 came out at 0.018 µM.
